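Cultured in 96-well plates, cells were exposed to test compound for 48 hours across five concentrations. GI50 is the concentration that inhibits growth by half. Definition used: TGI = concentration required for complete inhibition of growth.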
Experiments:
P388 leukemia = assay: NCI tumour cell line growth inhibition, 48 h
SN12K1 renal = assay: NCI tumour cell line growth inhibition, 48 h

O=C(NC(c1ccccc1)C(O)C(=O)OCc1ccc2c(c1)C(=O)c1ccccc1C2=O)c1ccccc1 (stereo not drawn)
TGI (P388 leukemia): > 100000 nM | TGI (SN12K1 renal): 3270 nM

COc1cccc2c1C(=N)c1c(O)c3c(c(O)c1C2=O)C[C@@](O)(C(C)=O)C[C@@H]3OC1CC(N)C(O)C(C)O1 (stereo partly drawn)
GI50 (P388 leukemia): 42.5 nM | TGI (SN12K1 renal): 3050 nM

C[CH2][Ge]1([CH2]C)[CH2]CC2(CCN(CCCN(C)C)C2)C[CH2]1
GI50 (P388 leukemia): 1340 nM | TGI (P388 leukemia): 2700 nM | GI50 (SN12K1 renal): 1970 nM | TGI (SN12K1 renal): 4380 nM
